# The source made the active and inactive calls.
# Legend:
# [1] = Luminescence Cell-Based Dose Confirmation HTS to Identify Activators of 5'UTR Stem-Loop Driven Alpha-Synuclein mRNA Translation in H4 Neuroglioblastoma Cells. [Related pubchem assays: 1829 (Project Summary), 1814 (Primary HTS)]; assay type: functional
# [2] = test system: H4; test: Luminescence Cell-Based Dose Response HTS to Identify Activators of 5'UTR Stem-Loop Driven Prion Protein mRNA Translation in H4 Neuroglioblastoma Cells. [Related pubchem assays: 1829 (Project Summary), 1814 (Primary HTS)]; assay type: functional; details: Homo sapiens
# [3] = Luminescence Cell-Based Dose Response HTS to Identify Activators of Luciferase Translation or Activity in H4 […] Cells. [Related pubchem assays: 1829 (Project Summary), 1814 (Primary HTS)]; assay type: functional
# [4] = test system: H9c2; test: cells; assay type: functional, cell-based; details: Rattus norvegicus, H9c2, Myocardium;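 further: confirmatory concentration-response retest of ultra-high-throughput screening hits for modulation of myocardial damage; cell death induced by hydrogen peroxide oxidative stress; compound pretreatment for 60 min then peroxide exposure for 2 h; potency is for protecting the cells against peroxide damage rather than for killing them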
# [5] = target: T1, Streptokinase A (Streptococcus pyogenes serotype M1, UniProt P10520); test: viability-normalized secreted streptokinase activity reduction – plasminogen activation absorbance, OD405, dose response (AID 1914); assay type: functional, Streptococcus pyogenes M1 GAS;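 further: secreted streptokinase activity via plasminogen activation per viability signal from cell pellet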
# T1 sequence (P10520 whole entry): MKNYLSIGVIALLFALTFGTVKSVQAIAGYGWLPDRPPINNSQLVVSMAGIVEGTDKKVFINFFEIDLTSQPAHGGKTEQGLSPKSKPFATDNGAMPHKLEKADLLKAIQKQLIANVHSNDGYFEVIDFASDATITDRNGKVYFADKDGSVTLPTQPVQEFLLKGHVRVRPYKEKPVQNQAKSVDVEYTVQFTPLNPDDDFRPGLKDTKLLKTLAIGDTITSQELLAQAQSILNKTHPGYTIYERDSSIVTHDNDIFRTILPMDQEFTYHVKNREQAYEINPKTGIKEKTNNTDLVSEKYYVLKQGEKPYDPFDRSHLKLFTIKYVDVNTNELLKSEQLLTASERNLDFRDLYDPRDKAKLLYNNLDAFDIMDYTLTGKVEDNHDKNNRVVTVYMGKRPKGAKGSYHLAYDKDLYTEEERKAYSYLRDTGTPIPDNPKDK
# [6] = test system: Streptococcus; test: GAS UMAA2166 growth inhibition – luminescence, BacTiterGlo, counter-screen for streptokinase expression inhibitor project, dose response (AID 1915); assay type: functional, organism-based;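 further: potency for reduction of bacterial viability or growth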
# [7] = test system: Streptococcus sp. 'group A'; test: Streptococcus pyogenes SK(-)GAS viability under kanamycin – luminescence, BacTiterGlo, confirmation, counter-screen for streptokinase expression inhibitor project, dose response (AID 1900); assay type: functional, organism-based
# [8] = target: T2, Sentrin-specific protease 6 (Homo sapiens, UniProt Q9GZR1); assay type: functional;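 further: Luminescence-based dose-response confirmatory assay of SENP6 inhibition, following up an ultra-high-throughput screen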
# T2 sequence (Q9GZR1 whole entry): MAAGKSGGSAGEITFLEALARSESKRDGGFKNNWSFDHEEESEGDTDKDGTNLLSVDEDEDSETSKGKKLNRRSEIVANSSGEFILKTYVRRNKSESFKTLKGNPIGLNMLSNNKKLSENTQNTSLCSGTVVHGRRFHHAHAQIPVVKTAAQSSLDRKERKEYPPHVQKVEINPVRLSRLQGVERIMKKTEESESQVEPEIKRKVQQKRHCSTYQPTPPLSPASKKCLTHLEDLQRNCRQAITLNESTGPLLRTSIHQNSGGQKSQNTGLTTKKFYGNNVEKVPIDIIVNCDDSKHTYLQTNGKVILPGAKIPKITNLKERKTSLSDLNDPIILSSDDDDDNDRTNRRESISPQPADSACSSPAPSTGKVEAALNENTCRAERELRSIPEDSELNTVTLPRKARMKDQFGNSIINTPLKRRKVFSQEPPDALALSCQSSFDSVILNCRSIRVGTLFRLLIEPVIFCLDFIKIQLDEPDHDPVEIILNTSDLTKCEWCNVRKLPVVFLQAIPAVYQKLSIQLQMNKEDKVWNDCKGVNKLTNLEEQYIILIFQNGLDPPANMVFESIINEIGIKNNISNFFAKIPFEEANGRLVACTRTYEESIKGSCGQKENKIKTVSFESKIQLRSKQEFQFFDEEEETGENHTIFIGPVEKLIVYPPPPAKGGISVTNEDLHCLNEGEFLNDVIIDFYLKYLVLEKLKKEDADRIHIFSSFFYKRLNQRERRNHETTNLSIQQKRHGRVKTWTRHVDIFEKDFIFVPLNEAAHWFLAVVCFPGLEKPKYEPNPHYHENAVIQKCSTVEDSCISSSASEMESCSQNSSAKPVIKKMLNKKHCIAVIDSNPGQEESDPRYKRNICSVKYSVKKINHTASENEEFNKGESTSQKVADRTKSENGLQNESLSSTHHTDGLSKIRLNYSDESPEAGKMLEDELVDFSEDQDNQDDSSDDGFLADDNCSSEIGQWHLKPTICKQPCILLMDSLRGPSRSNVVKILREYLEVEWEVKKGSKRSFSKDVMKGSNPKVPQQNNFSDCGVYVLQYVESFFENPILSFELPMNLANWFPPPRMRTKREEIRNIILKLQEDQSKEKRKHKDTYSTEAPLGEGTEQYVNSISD
# [9] = target: T3, Sentrin-specific protease 8 (Homo sapiens, UniProt Q96LD8); assay type: functional;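 further: luminescence read-out of SENP8 inhibition, dose-response confirmation following an ultra-high-throughput screen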
# T3 sequence (Q96LD8 whole entry): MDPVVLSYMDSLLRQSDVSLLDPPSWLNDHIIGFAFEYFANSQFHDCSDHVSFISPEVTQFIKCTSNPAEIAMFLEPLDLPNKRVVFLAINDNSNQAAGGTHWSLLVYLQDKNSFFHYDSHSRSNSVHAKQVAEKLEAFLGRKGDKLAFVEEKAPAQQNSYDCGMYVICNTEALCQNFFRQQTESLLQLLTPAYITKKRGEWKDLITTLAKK
# [10] = target: T4, Sentrin-specific protease 7 (Homo sapiens, UniProt Q9BQF6); assay type: functional;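 further: Luminescence-based dose-response confirmation of ultra-high-throughput screening hits, measuring inhibition of SENP7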
# T4 sequence (Q9BQF6 whole entry): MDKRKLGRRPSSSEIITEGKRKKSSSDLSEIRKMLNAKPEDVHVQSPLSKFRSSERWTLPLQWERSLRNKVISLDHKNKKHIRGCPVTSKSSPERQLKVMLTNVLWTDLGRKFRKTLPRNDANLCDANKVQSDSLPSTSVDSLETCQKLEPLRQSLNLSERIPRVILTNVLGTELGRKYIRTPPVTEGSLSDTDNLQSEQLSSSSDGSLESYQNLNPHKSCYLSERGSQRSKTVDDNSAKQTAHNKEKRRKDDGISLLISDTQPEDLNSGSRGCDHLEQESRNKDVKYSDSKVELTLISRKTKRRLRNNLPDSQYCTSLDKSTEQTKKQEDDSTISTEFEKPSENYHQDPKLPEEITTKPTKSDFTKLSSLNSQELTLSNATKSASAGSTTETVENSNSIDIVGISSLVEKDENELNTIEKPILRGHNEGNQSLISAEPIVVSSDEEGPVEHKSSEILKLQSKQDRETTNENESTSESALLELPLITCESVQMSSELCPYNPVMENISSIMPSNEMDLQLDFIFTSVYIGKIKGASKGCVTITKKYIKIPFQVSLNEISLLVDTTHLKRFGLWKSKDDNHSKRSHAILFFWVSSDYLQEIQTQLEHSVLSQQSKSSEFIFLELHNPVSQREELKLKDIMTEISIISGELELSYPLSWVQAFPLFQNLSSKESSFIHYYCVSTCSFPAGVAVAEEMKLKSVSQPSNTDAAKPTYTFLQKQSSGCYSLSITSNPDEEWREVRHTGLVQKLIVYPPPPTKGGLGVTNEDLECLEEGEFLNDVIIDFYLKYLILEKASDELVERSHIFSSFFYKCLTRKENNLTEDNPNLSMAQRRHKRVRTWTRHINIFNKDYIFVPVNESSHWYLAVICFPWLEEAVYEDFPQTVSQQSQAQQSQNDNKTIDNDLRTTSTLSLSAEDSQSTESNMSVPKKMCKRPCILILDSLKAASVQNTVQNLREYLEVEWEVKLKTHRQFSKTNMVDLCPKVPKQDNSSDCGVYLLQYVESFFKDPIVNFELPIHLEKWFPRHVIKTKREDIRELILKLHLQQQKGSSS
# [11] = target: T5, Polyadenylate-binding protein 1 (Homo sapiens, UniProt P11940); test: MLLE binding blockers, Cy5 peptide tracer – biochemical, fluorescence polarization, Cy5-PAM2 peptide, secondary, miRNA deadenylation inhibitor project, dose response (AID 602260); assay type: functional; details: read-out: IC50_Mean
# T5 sequence (P11940 whole entry, the tested form may be a part): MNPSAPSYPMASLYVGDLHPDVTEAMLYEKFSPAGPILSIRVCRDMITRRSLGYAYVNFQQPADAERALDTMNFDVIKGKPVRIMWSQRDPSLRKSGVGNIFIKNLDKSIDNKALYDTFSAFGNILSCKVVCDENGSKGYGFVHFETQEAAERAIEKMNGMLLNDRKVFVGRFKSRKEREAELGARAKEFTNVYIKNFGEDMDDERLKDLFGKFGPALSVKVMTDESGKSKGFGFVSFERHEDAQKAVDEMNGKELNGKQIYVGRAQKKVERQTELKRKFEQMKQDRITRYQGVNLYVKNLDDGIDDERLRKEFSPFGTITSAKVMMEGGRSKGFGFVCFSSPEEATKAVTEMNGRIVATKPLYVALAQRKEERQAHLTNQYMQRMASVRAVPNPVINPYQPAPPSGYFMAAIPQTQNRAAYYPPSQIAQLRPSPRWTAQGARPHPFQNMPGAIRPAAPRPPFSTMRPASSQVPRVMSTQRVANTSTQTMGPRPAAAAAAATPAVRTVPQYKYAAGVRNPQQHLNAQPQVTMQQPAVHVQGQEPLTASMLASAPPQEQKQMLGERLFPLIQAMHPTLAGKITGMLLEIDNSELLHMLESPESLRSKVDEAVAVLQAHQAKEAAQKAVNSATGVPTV
# [12] = target: T5, Polyadenylate-binding protein 1; test: MLLE domain peptide-binding blockers, IC50 – biochemical, fluorescence polarization, FITC-PAM2 peptide, dose response (AID 602259); assay type: functional; details: read-out: IC50_Mean
# [13] = target: T6, Microphthalmia-associated transcription factor (Homo sapiens, UniProt O75030); test: reducers of TRPM1 reporter luminescence, concentration series – cell-based, SK-MEL-5, cherry-picked, set 3, MITF inhibitor project, dose response (AID 493073); assay type: functional;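 further: SK-MEL-5 melanoma cells with luciferase driven by the MITF target TRPM1 promoter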
# T6 sequence (O75030 whole entry): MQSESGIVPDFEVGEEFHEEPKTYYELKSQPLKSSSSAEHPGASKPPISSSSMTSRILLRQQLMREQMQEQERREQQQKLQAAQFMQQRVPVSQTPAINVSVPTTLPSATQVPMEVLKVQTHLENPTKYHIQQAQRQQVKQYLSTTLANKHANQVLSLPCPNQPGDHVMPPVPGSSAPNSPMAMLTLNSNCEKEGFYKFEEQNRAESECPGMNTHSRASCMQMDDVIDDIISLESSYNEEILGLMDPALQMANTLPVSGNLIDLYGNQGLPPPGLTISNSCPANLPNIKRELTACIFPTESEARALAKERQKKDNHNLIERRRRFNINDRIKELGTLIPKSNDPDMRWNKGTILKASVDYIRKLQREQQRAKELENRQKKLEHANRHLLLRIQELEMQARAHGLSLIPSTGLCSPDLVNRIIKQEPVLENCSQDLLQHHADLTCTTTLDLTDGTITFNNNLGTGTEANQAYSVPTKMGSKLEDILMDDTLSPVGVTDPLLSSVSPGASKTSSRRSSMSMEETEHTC
# [14] = target: T7, Corticotropin-releasing factor receptor 2/Corticotropin-releasing factor-binding protein (Homo sapiens, UniProt P24387+Q13324); test: activators of CRF receptor 2 with binding protein – uHTS hits, confirmation (AID 602473); assay type: functional; details: read-out: EC50_Mean
# T7 sequence (Q13324 whole entry): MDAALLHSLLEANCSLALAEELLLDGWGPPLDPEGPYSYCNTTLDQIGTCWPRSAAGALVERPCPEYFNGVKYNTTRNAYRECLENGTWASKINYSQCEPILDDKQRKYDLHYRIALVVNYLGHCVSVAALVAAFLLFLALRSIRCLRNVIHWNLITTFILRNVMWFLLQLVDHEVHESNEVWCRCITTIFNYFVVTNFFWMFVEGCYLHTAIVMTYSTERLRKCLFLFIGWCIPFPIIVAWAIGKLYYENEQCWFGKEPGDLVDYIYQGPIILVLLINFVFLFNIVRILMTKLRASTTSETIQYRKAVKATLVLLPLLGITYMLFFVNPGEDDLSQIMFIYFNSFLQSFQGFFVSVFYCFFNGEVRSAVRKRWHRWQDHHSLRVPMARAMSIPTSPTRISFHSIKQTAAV
# T7 sequence (P24387 whole entry): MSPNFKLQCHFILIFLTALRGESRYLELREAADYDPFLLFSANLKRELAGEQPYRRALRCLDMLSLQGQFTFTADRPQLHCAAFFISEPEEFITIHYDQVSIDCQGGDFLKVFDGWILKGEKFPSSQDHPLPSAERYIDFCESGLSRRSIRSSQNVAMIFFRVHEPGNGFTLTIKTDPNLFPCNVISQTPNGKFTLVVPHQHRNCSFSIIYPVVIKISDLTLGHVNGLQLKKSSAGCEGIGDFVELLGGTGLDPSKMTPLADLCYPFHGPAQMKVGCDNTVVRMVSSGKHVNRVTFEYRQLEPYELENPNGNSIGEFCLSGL
smiles,measurement,setting,value
CCC(=O)Oc1cccc(C(=O)Nc2ccc(-c3nnc(-c4ccco4)o3)cc2)c1,EC50,[1],3.89 µM (active)
same,EC50,[2],6.33 µM (active)
same,EC50,[3],> 120 µM (not active)
same,IC50,[4],22.7 µM (active)
Cc1cc(C)c(C(=O)CC(=O)c2ccccc2Cl)c(O)c1,EC50,[5],> 150 µM (not active)
same,EC50,[6],23.5 µM (active)
same,EC50,[7],7.46 µM (active)
same,IC50,[4],11.7 µM (active)
Cn1c(/C(C#N)=C/c2ccc(O)cc2)nc2ccccc21,IC50,[8],28.3 µM (active)
same,IC50,[9],45 µM (active)
same,IC50,[10],12 µM (active)
O=C(CN1C(=O)S/C(=C/c2ccncc2)C1=O)N1CCOCC1,IC50,[11],> 66 µM (inactive)
same,IC50,[12],> 66 µM (inactive)
COc1ccccc1N1C(=O)N(C(C)=O)C2C1Nc1ccccc1N2C (stereo unspecified),AC50,[13],10.5 µM (active)
O=C(Nc1ccc(CN2CCOCC2)cc1)c1ccc(-c2cccc([N+](=O)[O-])c2)o1,IC50,[4],> 79 µM (inactive)
Cc1sc2nc(COC(=O)Cc3ccccc3)nc(O)c2c1C,IC50,[4],23.4 µM (active)
COc1cc2c(cc1OC)C(SC)=NC1(CCCC1)C2,AC50,[13],9.44 µM (active)
COC(=O)CSc1[nH]c2ccccc2c1[N+](=O)[O-],IC50,[11],> 66 µM (inactive)
same,IC50,[12],> 66 µM (inactive)
COc1ccccc1NS(=O)(=O)c1cc(NC(=O)CCc2nc(O)c3ccccc3n2)ccc1C,IC50,[4],> 79 µM (inactive)
COc1nccnc1NS(=O)(=O)c1ccc(NC(=S)NC(=O)/C=C/c2ccccc2)cc1,IC50,[11],> 66 µM (inactive)
same,IC50,[12],> 66 µM (inactive)
COc1ccccc1CN(C(=O)CNC(=O)c1ccco1)C(C(=O)NCC1CCCO1)c1ccccc1 (stereo unspecified),IC50,[4],> 79 µM (inactive)
Nc1ccc(-c2cc3ccccc3c(=O)o2)cc1,AC50,[13],0.293 µM (active)
CCOC(=O)C1=C(NC(=O)c2oc3ccccc3c2COC)Nc2ccccc2N=C1C,IC50,[4],> 79 µM (inactive)
CCCCN1CC(COCc2ccccc2)Oc2cccc(OCCN3C(=O)[C@@H]4[C@H](C3=O)C3C=C[C@H]4C3)c2S1(=O)=O (stereo partly specified),EC50,[14],5.15 µM (active)
same,IC50,[4],> 79 µM (inactive)
O=C(N/N=C/c1ccccn1)c1cc(-c2ccc(Cl)s2)n[nH]1,IC50,[4],> 79 µM (inactive)
CSc1nsc(NN)n1,IC50,[11],> 66 µM (inactive)
same,IC50,[12],> 66 µM (inactive)
COc1cc(C(=O)N/N=C/c2ccc(OC(=O)c3ccccc3Cl)cc2)ccc1O,IC50,[4],> 79 µM (inactive)
